# Measured values published in patent US20240261418A1, “SOS1 DEGRADING AGENT AND PREPARATION METHOD THEREFOR AND APPLICATION THEREOF” (SHANGHAI LEADINGTAC PHARMACEUTICAL CO. LTD., priority 2021, published 2024).
# How the values were obtained:
# KRAS-G12C/SOS1 = biological target: T1, KRAS-G12C/SOS1 (Homo sapiens, UniProt Q07889); assay: KRAS-G12C/SOS1 binding assay (HTRF); settings: inhibition of KRAS-G12C/SOS1 binding
# T1 construct: purchased Cisbio 63ADK000CB16PEG
# T1 sequence (Q07889 1-1333): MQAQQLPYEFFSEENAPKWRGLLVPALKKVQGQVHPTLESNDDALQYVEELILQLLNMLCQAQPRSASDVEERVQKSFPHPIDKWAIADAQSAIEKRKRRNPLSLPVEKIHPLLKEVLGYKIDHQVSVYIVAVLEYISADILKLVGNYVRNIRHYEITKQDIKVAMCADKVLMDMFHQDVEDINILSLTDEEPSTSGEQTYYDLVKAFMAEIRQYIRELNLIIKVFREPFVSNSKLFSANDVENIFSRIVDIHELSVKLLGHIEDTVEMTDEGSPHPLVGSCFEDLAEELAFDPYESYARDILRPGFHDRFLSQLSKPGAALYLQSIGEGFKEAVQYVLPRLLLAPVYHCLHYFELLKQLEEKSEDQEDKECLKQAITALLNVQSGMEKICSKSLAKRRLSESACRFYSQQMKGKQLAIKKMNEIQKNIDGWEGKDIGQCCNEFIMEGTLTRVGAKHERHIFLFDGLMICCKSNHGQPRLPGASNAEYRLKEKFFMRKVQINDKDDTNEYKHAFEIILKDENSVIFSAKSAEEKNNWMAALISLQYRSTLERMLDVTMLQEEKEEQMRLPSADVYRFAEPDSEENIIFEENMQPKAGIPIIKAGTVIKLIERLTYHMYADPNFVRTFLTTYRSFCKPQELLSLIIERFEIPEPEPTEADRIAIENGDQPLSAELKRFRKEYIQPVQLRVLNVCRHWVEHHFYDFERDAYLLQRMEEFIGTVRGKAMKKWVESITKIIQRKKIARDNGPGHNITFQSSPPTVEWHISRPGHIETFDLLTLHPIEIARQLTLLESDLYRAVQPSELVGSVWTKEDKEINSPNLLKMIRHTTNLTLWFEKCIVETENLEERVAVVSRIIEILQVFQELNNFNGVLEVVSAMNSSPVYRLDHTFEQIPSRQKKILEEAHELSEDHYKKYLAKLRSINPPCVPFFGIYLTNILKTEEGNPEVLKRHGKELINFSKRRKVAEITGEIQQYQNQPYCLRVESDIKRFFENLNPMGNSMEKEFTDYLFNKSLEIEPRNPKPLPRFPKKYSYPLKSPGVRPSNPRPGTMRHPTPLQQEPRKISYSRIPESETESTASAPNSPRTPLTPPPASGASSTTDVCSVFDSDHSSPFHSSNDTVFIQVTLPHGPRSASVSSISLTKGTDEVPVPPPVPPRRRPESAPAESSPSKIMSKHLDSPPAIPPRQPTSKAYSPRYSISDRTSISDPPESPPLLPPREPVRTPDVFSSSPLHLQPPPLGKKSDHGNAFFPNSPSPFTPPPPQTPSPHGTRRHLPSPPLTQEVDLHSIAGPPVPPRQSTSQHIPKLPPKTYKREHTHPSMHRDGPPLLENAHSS
# Procedure: Test Example 1: KRAS-G12C/SOS1 Binding Assay
# The following method was used to determine the extent of inhibition of KRAS-G12C/SOS1 binding by the preferred compounds of the present invention under in vitro conditions. In this method, the competitive inhibition of KRAS-G12C/SOS1 binding by the preferred compounds was assayed by the homogeneous time-resolved fluorescence (HTRF) technology using the KRAS-G12C/SOS1 binding assay kit (Cisbio, 63ADK000CB16PEG).
# The experimental procedures were as follows (refer to the kit instructions for details): the compounds of the present invention were each firstly dissolved in DMSO at a concentration of 20 mM, and then diluted in an equal gradient with a buffer in the kit, so that the final concentrations of the test compounds in the reaction system were in a range of 10000 nM-0.04 nM, and the final concentration of DMSO was 0.5%. 2 μL of the compounds were each incubated with 4 μL of 1×Tag1-SOS1, 4 μL of 1×Tag2-KRAS-G12C (containing 10 μM guanosine triphosphate, GTP) at 25° C. for 15 min. Then 5 μL of 1×Anti-Tag1-Tb3+ and 5 μL of 1×Anti-Tag2-XL665 were added to the reaction system, and the mixture was incubated on ice for 3 h. After the incubation, the fluorescence intensity of each well was measured at the excitation wavelength of 337 nm, the fluorescence intensity of each well was read at the emission wavelengths of 620 nm and 665 nm on a microplate reader EnVision (PerkinElmer, 2105) in an HTRF mode, and the Ratio value was calculated by the formula Ratio=(665 nm/620 nm)×[…]. The inhibition rates of the compounds at each concentration were calculated by comparing the fluorescence intensity ratio with that of the control group, and then nonlinear curve fitting was performed by GraphPad Prism 8 in the logarithmic concentration-inhibition rate to obtain the IC50 values of the compounds, as shown in Table 1.
# SOS1 protein = biological target: T2, SOS1 protein (Homo sapiens, UniProt Q07889); assay: SOS1 degradation assay (Western blot) in NCI-H358 cells; assay type: cell-based; settings: NCI-H358 (KRAS G12C), 24 h
# T2 sequence (Q07889 1-1333): T1 sequence (Q07889 1-1333)
# Procedure: The specific procedures were as follows:
# 0.95 mL of cells were seeded into each well of a 24-well cell culture plate to achieve a cell density of 5×10^5 cells/well; the cell plate was incubated in an incubator at 37° C. with 5% CO2 overnight. Then 50 μL of the compound solution after dilution was added to each of the wells with the corresponding cells, so that the final concentration of the compound was in a range of 0.03-3000 nM.
# After dosing, the cell plate was incubated in an incubator at 37° C. with 5% CO2 for 24 h. […] After the plate was left to stand on ice for 30 min, the protein lysate in each well was transferred to a 1.5 mL centrifuge tube and centrifuged at 15000 g for 20 min at 4° C. The cell lysate supernatant after centrifugation was cryopreserved at −80° C. for testing and was used for determining the degradation level of the SOS1 protein by a WB method. The concentration of total protein in the cell lysate supernatant was determined using the BCA Protein Quantification Kit (Tiangen, PA115-02).
# The concentration of total protein in the cell lysate was determined by BCA. The total protein was adjusted to 0.5 μg/μL with PBS and 5×SDS- PAGE protein loading buffer (Beyotime, P001L), incubated in a water bath at 100° C. for 15 min, incubated in an ice bath on ice for 5 min, centrifuged at 14000 g for 1 min at 4° C., and mixed well as a loading sample for WB. Protein electrophoresis was performed on a precast gel (KeyGEN, KGMG010W15) with a loading volume of 10 μL (total protein: 5 μg) using a Tris-MOPS-SDS running solution (Adamas, P1598253) at a constant voltage of 120 V for 55 min. After the electrophoresis, the protein on the gel strip was transferred to a PVDF membrane at a constant current of 250 mA for 65 min. After the membrane transfer, the membrane was incubated in 1× QuickBlock blocking buffer (Beyotime, P0235) for 30 min at room temperature. […] The protein map was subjected to gray value analysis by the chemiluminescence imaging system from Clinx. […] Then the degradation rate was calculated by comparing the gray correction value with the gray correction value of the control group. Then nonlinear curve fitting was performed by GraphPad Prism 8 in the logarithmic concentration-inhibition rate to obtain the DC50 and Dmax values of the compounds.
SMILES,IC50 (KRAS-G12C/SOS1) [µM],DC50 (SOS1 protein) [µM],Dmax (SOS1 protein) [%],NCI-H358 (G12C) Dmax (SOS1 protein)
"CNCc1ccccc1-c1csc([C@@H](C)Nc2nc(C)nc3cc(OC)c([C@H]4CC[C@H](C(=O)N5CCN(CC6CCC7(CC6)CCN(C(=O)c6ccc(Cl)c(N8CCC(=O)NC8=O)c6)CC7)CC5)CC4)cc23)c1 [Example 2, 1-(2-chloro-5-(9-((4-((1R,4R)-4-(7-methoxy-2-methyl-4-(((R)-1-(4-(2-((methylamino)methyl)phenyl)thien-2-yl)ethyl)amino)quinazolin-6-yl)cyclohexane-1-carbonyl)piperazin-1-yl)methyl)-3-azaspiro[5.5]undecane-3-carbonyl)phenyl)dihydropyrimidine-2,4(1H,3H)-dione]",≤ 0.015,< 0.05,80 to 100,–
"CNCc1ccccc1-c1csc([C@@H](C)Nc2nc(C)nc3cc(OC)c([C@H]4CC[C@H](C(=O)N5CCC(CCCC6CCN(C(=O)c7ccc(Cl)c(N8CCC(=O)NC8=O)c7)CC6)CC5)CC4)cc23)c1 [Example 3, 1-(2-chloro-5-(4-(3-(1-((1R,4R)-4-(7-methoxy-2-methyl-4-(((R)-1-(4-(2-((methylamino)methyl)phenyl)thien-2-yl)ethyl)amino)quinazolin-6-yl)cyclohexane-1-carbonyl)piperidin-4-yl)propyl)piperidine-1-carbonyl)phenyl)dihydropyrimidine-2,4(1H,3H)-dione]",0.015 to 0.03,0.1 to 0.5,50 to 80,–
"COc1cc2nc(C)nc(N[C@H](C)c3cc(-c4ccccc4CN(C)C)cs3)c2cc1[C@H]1CC[C@H](C(=O)N2CCN(CC3CCC4(CC3)CCN(C(=O)c3ccc(Cl)c(N5CCC(=O)NC5=O)c3)CC4)CC2)CC1 [Example 4, 1-(2-chloro-5-(9-((4-((1R,4R)-4-(4-(((R)-1-(4-(2-((dimethylamino)methyl)phenyl)thien-2-yl)ethyl)amino)-7-methoxy-2-methylquinazolin-6-yl)cyclohexane-1-carbonyl)piperazin-1-yl)methyl)-3-azaspiro[5.5]undecane-3-carbonyl)phenyl)dihydropyrimidine-2,4(1H,3H)-dione]",≤ 0.015,0.05 to 0.1,80 to 100,–
"COc1cc2nc(C)nc(N[C@@H](C)c3cc(N)cc(C(F)(F)F)c3)c2cc1[C@H]1CC[C@@H](C(=O)N2CCN(CCC3CCC4(CC3)CCN(C(=O)c3ccc(Cl)c(N5CCC(=O)NC5=O)c3)CC4)CC2)CC1 [Example 6, 1-(5-(9-(2-(4-((1S,4S)-4-(4-(((R)-1-(3-amino-5-(trifluoromethyl)phenyl)ethyl)amino)-7-methoxy-2-methylquinazolin-6-yl)cyclohexane-1-carbonyl)piperazin-1-yl)ethyl)-3-azaspiro[5.5]undecane-3-carbonyl)-2-chlorophenyl)dihydropyrimidine-2,4(1H,3H)-dione]",–,1 to 10,–,C (30≤Dmax (%)<50)
"CCNc1cc([C@@H](C)Nc2nc(C)nc3cc(OC)c([C@H]4CC[C@H](C(=O)N5CCN(CC6CCC7(CC6)CCN(C(=O)c6ccc(Cl)c(N8CCC(=O)NC8=O)c6)CC7)CC5)CC4)cc23)cc(C(F)(F)F)c1 [Example 7, 1-(2-chloro-5-(9-((4-((1R,4R)-4-(4-(((R)-1-(3-(ethylamino)-5-(trifluoromethyl)phenyl)ethyl)amino)-7-methoxy-2-methylquinazolin-6-yl)cyclohexane-1-carbonyl)piperazin-1-yl)methyl)-3-azaspiro[5.5]undecane-3-carbonyl)phenyl)dihydropyrimidine-2,4(1H,3H)-dione]",–,–,30 to 50,–
"COc1cc2nc(C)nc(N[C@H](C)c3cc(N)cc(C(F)(F)F)c3)c2cc1[C@H]1CC[C@H](C(=O)N2CCC(CCCN(C)C3CCN(Cc4ccc(Cl)c(N5CCC(=O)NC5=O)c4)CC3)CC2)CC1 [Example 10, 1-(5-((4-((3-(1-((1R,4R)-4-(4-(((R)-1-(3-amino-5-(trifluoromethyl)phenyl)ethyl)amino)-7-methoxy-2-methylquinazolin-6-yl)cyclohexane-1-carbonyl)piperidin-4-yl)propyl)(methyl)amino)piperidin-1-yl)methyl)-2-chlorophenyl)dihydropyrimidine-2,4(1H,3H)-dione]",–,–,–,D (Dma (%)<30)
"COc1cc2nc(C)nc(N[C@H](C)c3cc(N)cc(C(F)(F)F)c3)c2cc1C1CCC(C(=O)N2CCC(CCOCC3CCN(C(=O)c4ccc5c(c4)C(=O)N(C4CCC(=O)NC4=O)C5=O)CC3)CC2)CC1 (stereo partly drawn) [Example 11, 5-(4-((2-(1-((1S,4S)-4-(4-(((R)-1-(3-amino-5-(trifluoromethyl)phenyl)ethyl)amino)-7-methoxy-2-methylquinazolin-6-yl)cyclohexane-1-carbonyl)piperidin-4-yl)ethoxy)methyl)piperidine-1-carbonyl)-2-(2,6-dioxopiperidin-3-yl)isoindoline-1,3-dione]",–,–,–,A (80≤Dmax (%)≤100)
"Cc1nc(N[C@H](C)c2cc(N)cc(C(F)(F)F)c2)c2cc([C@H]3CC[C@H](C(=O)N4CCN(CC5CCC6(CC5)CCN(C(=O)c5ccc(Cl)c(N7CCC(=O)NC7=O)c5)CC6)CC4)CC3)ncc2n1 [Example 50, 1-(5-(9-((4-((1R,4R)-4-(4-(((R)-1-(3-amino-5-(trifluoromethyl)phenyl)ethyl)amino)-2-methylpyrido[3,4-d]pyrimidin-6-yl)cyclohexane-1-carbonyl)piperazin-1-yl)methyl)-3-azaspiro[5.5]undecane-3-carbonyl)-2-chlorophenyl)dihydropyrimidine-2,4(1H,3H)-dione]",–,–,–,B (50≤Dmax (%)<80)
